The text below walks through data of patent US20260248881A1, “PHARMACEUTICAL COMPOSITION COMPRISING FOXM1 INHIBITOR AND IMMUNE CHECKPOINT INHIBITOR FOR PREVENTING OR TREATING CANCER” (National Cancer Center, priority 2022, published 2026).

Data set [1] deals with CD274 (PD-L1). Put plainly: Semi-quantitative PCR of PD-L1 (CD274) transcript in H1299 and PC9 cells. As to conditions: TST in the presence of IFN-γ. Format: cell-based, human. On the procedure: H1299 and PC9 cells purchased from ATCC (Manassas, VA, USA) were cultured in RPMI-1640 medium (#10-040-CV; Corning, New York, NY, USA) supplemented with 10% […] (#35-010-CV; Corning) and penicillin-streptomycin antibiotic cocktail (#15240062; Thermo Fisher Scientific, Waltham, MA, USA) at 37° C. and 5% CO2.
H1299 and PC9 LUAD cells were transfected with 5 nM negative control (NC) or FOXM1 siRNA (siFOXM1) (QIAGEN, Hilden, Germany) using Lipofectamine RNAiMAX (#13778150; Thermo Fisher Scientific). Human FOXM1 isoform b (pFLAG-FOXM1)-expressing plasmid or empty vector (pFLAG-CMV; mock) was transfected into H1299 and PC9 cells using Lipofectamine 2000 reagent (#11668019; Thermo Fisher Scientific) according to the manufacturer's instructions.
Total RNA was extracted and purified using the RNeasy kit (#74004; QIAGEN) according to the manufacturer's protocol. Reverse transcription of mRNA was performed using a PrimeScript 1st Strand CDNA Synthesis Kit (#6110A; TaKaRa Bio, Otsu, Japan). Quantitative PCR was performed using primers specific for the CD274 and FOXM1 genes designed using Primer 3 software. A β-actin gene was used as an internal control group to normalize target gene expression.

For data set [2], the system named is H1299 and PC9 cells. The experiment in a line: Cell proliferation assay (WST-1). It is filed as cell-based, human. As to conditions: 5 μM TST or siRNA knockdown; 24, 48, and 72 hours; both cell lines. As to the method: H1299 and PC9 cells were grown in 96-well plates, treated with 5 µM TST, or transfected with siFOXM1 at a density of 3,000 cells/well […]. Cell proliferation was recorded at the specified times by adding 4-[3-(4-iodophenyl)-2-(4-nitro-phenyl)-2H-5-tetrazolio]-1,3-benzene sulfonate) (WST-1, #MK400, TaKaRa Bio) at 37° C. for 2 hours, and absorbance was measured at 450 nm. All experiments were performed in quadruplicate.
Background: Tetrazolium dyes change colour on reduction, which living cells bring about.

In data set [3] the test system is H1299 and PC9 cells. Put plainly: Apoptotic cell death assay (Annexin V/PI staining). Format: cell-based, human. As to conditions: 5 μM TST or siFOXM1. As to the method:
H1299 and PC9 cells (1×10^5) were cultured in 6-well plates, transfected with siFOXM1 or NC siRNA or treated with 5 μM TST or dimethyl sulfoxide (DMSO), and then stained using fluorescein isothiocyanate (FITC) Annexin V Apoptosis Detection Kit I (#556547; BD Biosciences). Cells were analyzed within 1 hour to reduce side effects due to staining, and flow cytometry was performed using a FACSVerse cell analyzer (BD Biosciences).

The test system of data set [4] is CD274 promoter. Put plainly: ChIP-PCR of FOXM1 binding to CD274 promoter. Format: cell-based, human. As to conditions: H1299 and PC9; vs respective controls. As to the method:
To cross-link proteins to DNA, H1299 and PC9 cells were treated with 0.7% formaldehyde at 37° C. for 10 minutes. Cross-linking was quenched by adding glycine to the culture medium at a final concentration of 0.125 M for 5 minutes. The cells were sonicated using a Bioruptor Next Gen sonicator (Diagenode, Denville, NJ, USA) for 5 minutes in 30 s on/30 s off cycle to obtain ~500 bp DNA fragments. The sonicated cell lysates containing genomic DNA fragments were pre-cleared to eliminate unwanted nonspecific components. ChIP was performed using antibody against FOXM1 (#sc-271746, Santa Cruz Biotechnology) with rotation at 4° C. overnight, followed by various washing steps, reverse cross-linking, and protein digestion with proteinase K (#P2308; Sigma-Aldrich, St. Louis, MO, USA). The immunoprecipitated DNA fragments were purified using a phenol-chloroform method, and the purified DNA pellets were resuspended in TE buffer (pH 8.0) and used for PCR. Primers specifically detecting a FOXM1 binding region were designed using a Primer3 tool for chromatin immunoprecipitation-PCR (ChIP-PCR) (Table 1).

For data set [5], the system named is human H1299 or PC9 cells. Put plainly: Xenograft tumor model. Format: in vivo, BALB/c nude mice. On the procedure:
Mice (n=6) were injected intraperitoneally with TST dissolved in DMSO at a dose of 17 mg/kg every 2 days before euthanasia and sacrifice. Tumor volume and body weight of the mice were measured every other day. […] Two days after the final TST injection, all mice were sacrificed, and tumor tissues were collected for immunohistochemical (IHC) staining of FOXM1 and PD-L1. The tissues were fixed in 10% neutralized formaldehyde and embedded in paraffin blocks. Tissue microarray (TMA) slides were made with a 4 mm diameter per sample and sectioned at 4 μm thickness to perform IHC with anti-FOXM1 (#20459S) or anti-PD-L1 (#13684S) (Cell Signaling Technology) antibodies. Autostainer Link48 (Dako, Agilent Technologies, Santa Clara, CA, USA) was used for analysis.
(§1) IHC staining was performed using anti-rabbit-HRP antibodies (K4003, EnVision+ HRP Labelled Polymer Anti-Rabbit, Dako, Agilent Technologies, Carpinteria, CA, USA) and 3,3′-diaminobenzidine (DAB) (K3468, DAB+ Chromogen, Dako, Agilent Technologies, Santa Clara, CA, USA) as substrates, and the sections were counterstained with hematoxylin (K8008, EnVision FLEX Hematoxylin, Dako, Agilent Technologies Singapore, Singapore). To analyze the in vivo toxicity of the tested drugs, four xenograft mice from each group were used for serum biochemical analysis (Table 2). On day 9, serum samples were collected from the mice in the control and TST-treated groups. In addition, the vital organs (liver, spleen, and kidney) were collected form mice, sectioned, and stained with H&E to monitor histopathological changes.
To investigate the effect of TST, which is a FOXM1 inhibitor, on tumor growth and PD-L1 expression in vivo, human H1299 or PC9 cells (5×10^6) were subcutaneously implanted into BALB/c nude mice (n=6 per group). When the average size of the xenografted tumor masses reached approximately 170 mm^3, TST was injected intraperitoneally into the mice at a dose of 17 mg/kg four times every 2 days (FIG. 7a). […] 2 days after the final TST treatment, the mice were sacrificed. […]

Data set [6] can be described thus: In vivo toxicity in xenograft mice (serum biochemical analysis, H&E, TUNEL of normal tissues). As to the method: as §1

As to thiostrepton [TST], the “PD-L1 mRNA expression” value in data set [1] is “concentration-dependent decrease”. In data set [2], the cell proliferation result is given as “decreased in a time-dependent manner”. In addition, in data set [3], the “apoptotic cell population (annexin V/PI positive cells)” value was “significantly increased in a time-dependent manner”. Further, the “FOXM1 binding to the CD274 promoter” value in data set [4] is reported as “dramatic decrease”. In data set [5] (2 days after final TST treatment, vs control mice), the “FOXM1 and PD-L1 expression in tumors (immunohistochemical analysis)” value is reported as “significantly downregulated”. Moreover, the tumor volume result in data set [5] (TST 17 mg/kg intraperitoneally four times every 2 days, vs control group) is recorded as “significant decrease in tumor volume”. Further, the body weight result in data set [5] (after 9 days, TST vs control) is “no difference in body weight”. In data set [6] (liver, spleen, kidney), the “histological changes in vital organs (H&E staining)” value is reported as “no significant histological changes”. In data set [6] (serum, day 9, n = 4), the A/G ratio is 1.99 ± 0.13, the ALP is 91.50 ± 15.04 U/L, the ALT was 31.25 ± 4.21 U/L and the AST worked out at 82.75 ± 8.58 U/L. Also, in data set [6] (serum, day 9, n = 4), the Alb worked out at 3.28 ± 0.08 g/dL, the BUN turned out to be 19.70 ± 1.11 mg/dL, the Crea is 0.00 ± 0.00 mg/dL and the Glo is listed as 1.65 ± 0.09 g/dL. In data set [6] (serum, day 9, n = 4), this substance had a Glu of 321.00 ± 58.73 mg/dL, a T-Bill of 0.10 ± 0.00 mg/dL, a T-chol of 107.50 ± 3.20 mg/dL and a TG of 118.00 ± 14.88 mg/dL. This substance gave a TP in data set [6] (serum, day 9, n = 4) of 4.93 ± 0.08 g/dL. In addition, the “levels of blood biomarkers” value in data set [6] (vs DMSO control group) is listed as “not significantly changed”. Further, the “apoptotic cell death in normal tissues (TUNEL assay)” value in data set [6] (vs DMSO control tissues) is “no effect on apoptotic cell death in normal tissues”.
